Laboratory results published in patent US9822069B2, “Urea derivative or pharmacologically acceptable salt thereof” (KYORIN PHARMACEUTICAL CO. LTD., priority 2013, dated 2017).

These compounds were tested against T1, human FPRL1 (Homo sapiens, UniProt P25090) (assay: Measurement test of agonist activity on human FPRL1 (test of calcium mobilization in cell, HEK293 with human FPRL1 and Gα15 expression vectors)). Conditions: calcium mobilization in HEK293 cells with human FPRL1 and Gα15 expression vectors.
T1 construct: expressed in transfected cells; host or cells: HEK293 (JCRB9068, NIBIO), transient transfection with pCMV-script vectors using Lipofectamine 2000
T1 sequence (P25090 1-351): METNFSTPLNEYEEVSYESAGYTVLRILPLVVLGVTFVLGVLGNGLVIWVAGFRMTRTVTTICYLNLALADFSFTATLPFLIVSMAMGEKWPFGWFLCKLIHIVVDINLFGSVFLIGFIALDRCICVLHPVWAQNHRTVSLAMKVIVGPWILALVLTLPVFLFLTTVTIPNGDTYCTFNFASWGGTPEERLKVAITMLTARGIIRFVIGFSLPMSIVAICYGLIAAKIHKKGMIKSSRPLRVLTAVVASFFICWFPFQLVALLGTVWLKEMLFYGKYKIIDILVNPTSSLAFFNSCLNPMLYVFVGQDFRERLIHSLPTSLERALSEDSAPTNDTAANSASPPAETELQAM
Assay type: cell-based
Excerpt: Measurement Test of Agonist Activity on Human FPRL1
(1-1) Construction of Human FPRL1 Expression Vector
Human FPRL (SEQ ID NO: 3) was amplified in a PCR reaction from cDNA derived from a monocytic leukemia cell line THP-1 (TIB-202, ATCC) as a template using a forward primer shown in SEQ ID NO: 1, a reverse primer shown in SEQ ID NO: 2, and KOD-plus-ver. 2 (KOD-211, TOYOBO CO., LTD.). The amplified PCR product and pCMV-script vector (212220, STRATAGENE) were digested with Hind III (1060A, Takara Bio Inc.) and XhoI (1094A, Takara Bio Inc.), and the resultant digest was ligated with Ligation high ver. 2 (LGK-201, TOYOBO CO., LTD.). The ligation product was transformed into DH5α (DNA-901, TOYOBO CO., LTD.), cultured on a 100 μg/mL kanamycin-containing LB medium, and purified with HiSpeed Plasmid Maxi Kit (12662, QIAGEN).
(1-2) Construction of Human Gα15 Expression Vector
Human Gα15 (SEQ ID NO: 6) was amplified in a PCR reaction from cDNA derived from a myeloid leukemia cell line HL-60 (CCL-240, ATCC) as a template using a forward primer shown in SEQ ID NO: 4, a reverse primer shown in SEQ ID NO: 5, and KOD-plus-ver. 2. The amplified PCR product and pCMV-script vector were digested with Hind III and XhoI, and the resultant digest was ligated with Ligation high ver. 2. The ligation product was transformed into DH5α, cultured on a 100 μg/mL kanamycin-containing LB medium, and purified with HiSpeed Plasmid Maxi Kit.
(2-1) Method for Culturing and Subculturing HEK293
HEK293 (JCRB9068, NIBIO) was cultured in an incubator at 5% CO2 and 37° C. using DMEM (11885-092, GIBCO) containing 10% FBS and 1× Penicillin-Streptomycin (15140-122, GIBCO). Subculture was carried out as followings: The cells that reached 80 to 90% confluency were washed with PBS(−), separated using 0.25% Trypsin-EDTA (25200-072, GIBCO), centrifuged, re-suspended in a fresh medium, and then seeded in Collagen Type 1 Coated dish (4020-010, IWAKI) at a split ratio of 1:8 (cultured for 3 days).
(2-2) Introduction of Human FPRL1 and Gα15 Expression Vectors
HEK293 that reached 80 to 90% confluency was washed with PBS(−), separated using 0.25% Trypsin-EDTA, centrifuged, and re-suspended in a fresh medium excluding 1× Penicillin-Streptomycin. The cells were inoculated in a Collagen Type 1 coated 6-well plate (4810-010, IWAKI) to 5×10^5 cells/2.5 mL/well and cultured overnight. On the next day, human FPRL1 and Gα15 expression vectors were introduced using Lipofectamine 2000 transfection reagent (11668-019, Life technologies). First, the human FPRL1 and Gα15 expression vectors were diluted with Opti-MEM I Reduced Serum Medium (31985-070, GIBCO) to 2 μg/250 μL/well and Lipofectamine 2000 transfection reagent was diluted with Opti-MEM I Reduced Serum Medium to be 4 μL/250 μL/well. The vectors and reagent were softly diffused, and incubated at room temperature for 5 minutes. The vector solution was mixed with Lipofectamine 2000 transfection reagent in equal amounts. In order to form a composite of the vectors and Lipofectamine 2000 transfection reagent, the mixture was incubated at room temperature for 20 minutes, and added at 500 μL/well to the medium of inoculated cells. The treated cells were cultured for 24 hours, inoculated in Poly-D-Lysine coated 96-well plate (356640, BD Biosciences) at a cell density of 7×10^4 cells/100 μL/well, and cultured for another 24 hours. The resultant cells were used in a measurement test of calcium mobilization in the cells.
(3) Evaluation of Agonist Activity on Human FPRL1 (Test of Calcium Mobilization in Cell)
An appropriate amount of each test compound was first weighed, and dissolved to 10^−2 M by addition of dimethyl sulfoxide (DMSO). […]

Row | Compound | EC50 [nM]
1 | COc1ccc(C2CNC(=O)C2NC(=O)Nc2ccc(Cl)cc2)cc1 (single isomer, unassigned; (+)) [Example 12-12, (+)-1-(4-chlorophenyl)-3-[4-(4-methoxyphenyl)-2-oxopyrrolidin-3-yl]urea] | 0.9
2 | COc1ccc([C@@H]2CNC(=O)[C@H]2NC(=O)Nc2ccc(F)c(F)c2)cc1 (single isomer, unassigned) [EXAMPLE 1-3, (-)-1-(3,4-difluorophenyl)-3-[(3S*,4R*)-4-(4-methoxyphenyl)-2-oxopyrrolidin-3-yl]urea] | 2.57
3 | O=C(Nc1ccc(F)cc1)N[C@@H]1C(=O)N(CCO)C[C@H]1c1cc2c(cc1F)OCC2 (single isomer, unassigned) [EXAMPLE 24-19, (−)-1-[(3S*,4R*)-4-(6-fluoro-2,3-dihydrobenzofuran-5-yl)-1-(2-hydroxyethyl)-2-oxopyrrolidin-3-yl]-3-(4-fluorophenyl)urea] | 0.33
4 | COc1ccc(C2CNC(=O)C2NC(=O)Nc2ccc(Cl)cc2)cc1 (single isomer, unassigned; (-)) [Example 12-11, (−)-1-(4-chlorophenyl)-3-[4-(4-methoxyphenyl)-2-oxopyrrolidin-3-yl]urea] | 4.57
5 | COc1ccc([C@H]2CN(OC)C(=O)[C@@H]2NC(=O)Nc2ccc(F)cc2)cc1 (single isomer, unassigned) [EXAMPLE 27-1, (+)-1-(4-Fluorophenyl)-3-[(3R*,4S*)-1-methoxy-4-(4-methoxyphenyl)-2-oxopyrrolidin-3-yl]urea] | 3.14
6 | CNC(=O)C(C)(C)N1C[C@@H](c2ccc(OC)cc2)[C@H](NC(=O)Nc2ccc(F)cc2)C1=O (relative stereo) [Example 23-1, (−)-2-{(3S*,4R*)-3-[3-(4-Fluorophenyl)ureido]-4-(4-methoxyphenyl)-2-oxopyrrolidin-1-yl}-N,2-dimethylpropionamide] | 0.09
7 | COc1ccc([C@@H]2CNC(=O)[C@H]2NC(=O)Nc2ccc(F)cc2)s1 (single isomer, unassigned) [EXAMPLE 1-19, (−)-1-(4-fluorophenyl)-3-[(3S*,4R*)-4-(5-methoxythiophen-2-yl)-2-oxopyrrolidin-3-yl]urea] | 0.72
8 | COc1cc(F)c([C@@H]2CN/C(=N\OCCO)[C@H]2NC(=O)Nc2ccc(C#N)cc2)c(F)c1 (single isomer, unassigned) [EXAMPLE 32-13, (−)-1-(4-cyanophenyl)-3-{(3S*,4R*,Z)-4-(2,6-difluoro-4-methoxyphenyl)-2-[(2-hydroxyethoxy)imino]pyrrolidin-3-yl}urea] | 0.25
9 | COc1cc(F)c([C@@H]2CNC(=O)[C@H]2NC(=O)Nc2cc(C)ns2)c(F)c1 (relative stereo) [Example 1-58, (−)-1-[(3S*,4R*)-4-(2,6-difluoro-4-methoxyphenyl)-2-oxopyrrolidin-3-yl]-3-(3-methylisothiazol-5-yl)urea] | 0.32
10 | CNC(=O)CN1C[C@@H](c2ccc(OC)cc2)[C@H](NC(=O)Nc2ccc(F)cc2)C1=O (relative stereo) [Example 17-1, (−)-2-{(3S*,4R*)-3-[3-(4-Fluorophenyl)ureido]-4-(4-methoxyphenyl)-2-oxopyrrolidin-1-yl}-N-methylacetamide] | 0.11
11 | O=C(Nc1ccc(F)cc1)N[C@@H]1C(=O)N(CC2CC2)C[C@H]1c1cc2c(cc1F)OCC2 (single isomer, unassigned) [EXAMPLE 24-22, (−)-1-[(3S*,4R*)-1-(cyclopropylmethyl)-4-(6-fluoro-2,3-dihydrobenzofuran-5-yl)-2-oxopyrrolidin-3-yl]-3-(4-fluorophenyl)urea] | 1.32
12 | COc1ccc([C@@H]2CN/C(=N\OCCO)[C@H]2NC(=O)Nc2ccc(F)cc2)cc1 (single isomer, unassigned) [EXAMPLE 32-4, (−)-1-(4-fluorophenyl)-3-{(3S*,4R*,Z)-2-[(2-hydroxyethoxy)imino]-4-(4-methoxyphenyl)pyrrolidin-3-yl}urea] | 0.17
13 | COc1cc(F)c([C@@H]2CN(Cc3nnc(C)o3)C(=O)[C@H]2NC(=O)Nc2ccc(F)cc2)c(F)c1 (single isomer, unassigned) [EXAMPLE 24-18, (−)-1-{(3S*,4R*)-4-(2,6-difluoro-4-methoxyphenyl)-1-[(5-methyl-1,3,4-oxadiazol-2-yl)methyl]-2-oxopyrrolidin-3-yl}-3-(4-fluorophenyl)urea] | 0.03
14 | COc1cc(F)c([C@@H]2CNC(=O)[C@H]2NC(=O)Nc2ccc(Cl)cn2)c(F)c1 (relative stereo) [Example 1-32, (−)-1-(5-chloropyridin-2-yl)-3-[(3S*,4R*)-4-(2,6-difluoro-4-methoxyphenyl)-2-oxopyrrolidin-3-yl]urea] | 4.54
15 | COc1cc(F)c([C@@H]2CN(CS(C)(=O)=O)C(=O)[C@H]2NC(=O)Nc2ccc(F)cc2)c(F)c1 (relative stereo) [Example 24-14, (−)-1-{(3S*,4R*)-4-(2,6-difluoro-4-methoxyphenyl)-1-[(methylsulfonyl)methyl]-2-oxopyrrolidin-3-yl}-3-(4-fluorophenyl)urea] | 0.12
16 | O=C(Nc1ccc(F)cc1)N[C@@H]1/C(=N/OCCO)NC[C@H]1c1cc2c(cc1F)OCC2 (single isomer, unassigned) [EXAMPLE 32-19, (−)-1-((3S*,4R*,Z)-4-(6-fluoro-2,3-dihydrobenzofuran-5-yl)-2-[(2-hydroxyethoxy)imino]pyrrolidin-3-yl)-3-(4-fluorophenyl)urea] | 0.13
17 | COc1cc(F)c([C@@H]2CN(Cc3ccccc3)C(=O)[C@H]2NC(=O)Nc2ccc(F)cc2)c(F)c1 (relative stereo) [Example 24-12, (−)-1-[(3S*,4R*)-1-benzyl-4-(2,6-difluoro-4-methoxyphenyl)-2-oxopyrrolidin-3-yl]-3-(4-fluorophenyl)urea] | 2.2
18 | O=C(Nc1cc2ccccc2s1)N[C@@H]1C(=O)NC[C@H]1c1cc2c(cc1F)OCC2 (relative stereo) [Example 1-85, (−)-1-(benzo[b]thiophen-2-yl)-3-[(3S*,4R*)-4-(6-fluoro-2,3-dihydrobenzofuran-5-yl)-2-oxopyrrolidin-3-yl]urea] | 3.5
19 | COc1cc(F)c([C@@H]2CNC(=O)[C@H]2NC(=O)Nc2cccc(C#N)c2)c(F)c1 (relative stereo) [Example 7-12, (−)-1-(3-cyanophenyl)-3-[(3S*,4R*)-4-(2,6-difluoro-4-methoxyphenyl)-2-oxopyrrolidin-3-yl]urea] | 3.9
20 | CCOC(=O)C(C)(C)N1C[C@@H](c2cc3c(cc2F)OCC3)[C@H](NC(=O)Nc2ccc(F)cc2)C1=O (single isomer, unassigned) [EXAMPLE 24-21, (−)-2-{(3S*,4R*)-4-(6-fluoro-2,3-dihydrobenzofuran-5-yl)-3-[3-(4-fluorophenyl)ureido]-2-oxopyrrolidin-1-yl}-2-methylpropanoic acid ethyl ester] | 0.45
